Measured values taken from patent US20040039022A1, “NMDA receptor agonist pharmaceutical compositions” (Pfizer Inc., priority 2000, published 2004).

Tests used:
Type in all cases: physicochemical
[1] = Maximum solubility of the Compound; conditions: at 5° C.
Protocol: A preferred presentation of the composition aspects of the invention comprises the Compound at a concentration of 10 mgA/mL. This concentration is near the maximum solubility of the Compound (about 12 mgA/mL at 5° C.). The preferred solution of the composition is 10 mM lactate buffer. However, those skilled in the art will appreciate that buffer solutions of other anions may be used, including, but not limited to, buffer solutions of the anions acetate, citrate, tartrate and formate.

[2] = pH shift of aqueous formulations (water only; terminal sterilization of lactate buffered formulation)
Excerpt: Aqueous solutions of the Compound are susceptible to pH shift. […] When the Compound is formulated with only water, the pH of the formulation increases above 5. This pH shift results in conditions favorable to the oxidative degradation reaction, thus accelerating the degradation of the aqueous formulation. The increase in pH also decreases the solubility of the compound, thereby increasing the possibility of precipitation out of solution. Vials are preferably sterilized by terminal sterilization methods employing an autoclave. Preferably, sterilization is for 8 minutes at 121° C. Sterilization may cause a slight shift of pH. In the lactate buffered formulation, pH shifted slightly down. In order to achieve a mid-point in the preferred pH range, the initial pH is preferably set to 4.5. The terminal sterilization cycle reduces the pH to about 4.2. The pH of the initial formulation is set at pH 4.5 to accommodate the slight pH down-shifting upon terminal sterilization. […] Sodium hydroxide and hydrochloric acid are used as needed to adjust the solution to the desired pH.

[3] = pH of buffered 10 mgA/ml formulations of the Compound at 70° C.
Excerpt: Table 2 exemplifies the use of various buffers to stabilize the pH of formulations containing 10 mgA/ml of the Compound. [table]

**Q.** With `C[C@@H]([C@@H](O)c1ccc(O)cc1)N1CCC(O)(c2ccccc2)CC1` [Compound, (1S,2S)-1-(4-Hydroxyphenyl)-2-(4-hydroxy4-phenylpiperidin-1-yl)-1-propanol] as the molecule, how does the maximum solubility [1] read?
**A.** about 12 mgA/mL

**Q.** And the “pH of the formulation” value ([2]; Compound formulated with only water)?
**A.** above 5

**Q.** What about the “pH after terminal sterilization cycle” value ([2]; lactate buffered formulation, initial pH 4.5, autoclave 8 minutes at 121° C.) of the same molecule?
**A.** about 4.2

**Q.** What about the “pH at 70° C.” value ([3]; 3 mM lactate, 2 days) of the same molecule?
**A.** 4.21

**Q.** What about the “pH at 70° C.” value ([3]; 3 mM lactate, 7 days) of the same molecule?
**A.** 4.20

**Q.** What about the “pH at 70° C.” value ([3]; 3 mM lactate, 21 days) of the same molecule?
**A.** 4.14

**Q.** And the “pH at 70° C.” value ([3]; 3 mM lactate, Initial (post-TS))?
**A.** 4.24

**Q.** And the “pH at 70° C.” value ([3]; 10 mM acetate, 4 days)?
**A.** 4.14

**Q.** And the “pH at 70° C.” value ([3]; 10 mM acetate, 7 days)?
**A.** 4.14

**Q.** What about the “pH at 70° C.” value ([3]; 10 mM acetate, 21 days) of the same molecule?
**A.** 4.17

**Q.** And the “pH at 70° C.” value ([3]; 10 mM acetate, Initial (post-TS))?
**A.** 4.16

**Q.** And the “pH at 70° C.” value ([3]; 10 mM benzoate, 4 days)?
**A.** 4.16

**Q.** What about the “pH at 70° C.” value ([3]; 10 mM benzoate, 7 days) of the same molecule?
**A.** 4.20

**Q.** What about the “pH at 70° C.” value ([3]; 10 mM benzoate, Initial (post-TS)) of the same molecule?
**A.** 4.21

**Q.** And the “pH at 70° C.” value ([3]; 10 mM citrate, 2 days)?
**A.** 4.16

**Q.** What about the “pH at 70° C.” value ([3]; 10 mM citrate, 7 days) of the same molecule?
**A.** 4.17

**Q.** What about the “pH at 70° C.” value ([3]; 10 mM citrate, 21 days) of the same molecule?
**A.** 4.11

**Q.** What about the “pH at 70° C.” value ([3]; 10 mM citrate, Initial (post-TS)) of the same molecule?
**A.** 4.16

**Q.** What about the “pH at 70° C.” value ([3]; 10 mM formate, 2 days) of the same molecule?
**A.** 4.18

**Q.** What about the “pH at 70° C.” value ([3]; 10 mM formate, 7 days) of the same molecule?
**A.** 4.16

**Q.** What about the “pH at 70° C.” value ([3]; 10 mM formate, 21 days) of the same molecule?
**A.** 4.13

**Q.** And the “pH at 70° C.” value ([3]; 10 mM formate, Initial (post-TS))?
**A.** 4.17

**Q.** And the “pH at 70° C.” value ([3]; 10 mM tartrate, 2 days)?
**A.** 4.17

**Q.** What about the “pH at 70° C.” value ([3]; 10 mM tartrate, 7 days) of the same molecule?
**A.** 4.17

**Q.** And the “pH at 70° C.” value ([3]; 10 mM tartrate, 21 days)?
**A.** 4.07

**Q.** What about the “pH at 70° C.” value ([3]; 10 mM tartrate, Initial (post-TS)) of the same molecule?
**A.** 4.15
